# “Also recorded” adds a separate entry of the source.
# How the values were obtained:
# Type in all cases: cell-based, human
# [1] = test system: APOE4 PFC-like spheroids; experiment: Alzheimer's Disease model, FLIPR calcium activity after compound treatment; details: 90 min after treatment, Memantine 10 μM, Donepezil 1 & 10 uM, EUK-134 1 & 10 μM
# Experimental: (§1) Fluorescent Imaging plate Reader (FLIPR): The FLIPR Penta (Molecular Devices) was used to assess calcium fluorescence across the 384-well plate simultaneously and to observe changes after treatment with compounds. The evening before calcium activity was measured, plates were sealed with parafilm and centrifuged at 1485×g for 2-min to get spheroids to the bottom of the well in a centered position. On the day of recording, the plate used for recording was placed in the read plate position inside of the FLIPR following the 2-hour Cal6 incubation at 37° C. Standard filter sets were used for Cal6 imaging with excitation set at 470-495 and emission at 515-575 nm. Fluorescent image reads were taken every 0.6 seconds for all plates, with exposure time of 0.03 and 50% excitation intensity. Recordings from the initial seven plates consisted of 1000 reads and were 10-min recordings with 2.5 gain, while the final two plates consisted of 500 reads (5-min recordings) with a gain of 2. Baseline recordings were taken across all plates and, if applicable, more recordings were obtained 1-, 30-, 60-, and/or 90-min after compound treatment. In between recordings, plates were wrapped in foil and placed back in the incubator at 37° C.
# 384 Pin Tool: A 384 well pin tool (Rexroth) was used to transfer compounds simultaneously to the spheroid plate. Prior to compound transfer, the pin tool went through four wash cycles where pins were rinsed with dimethyl sulfoxide (DMSO), followed by methanol, then deionized (DI) water, to ensure the pins were clean. Compound transfer via the 384 well pin tool occurred after the baseline recordings with the fluorescent imaging plate reader (FLIPR). […]
# Calcium Activity Analysis: Calcium oscillatory peak detection data from FLIPR recordings was obtained through ScreenWorks 5.1 (Molecular Devices). […] There, percent coefficient of variance (% CV) was calculated within each plate to measure how variable each parameter exported was. […]
# [2] = test system: VTA-like spheroids; experiment: FLIPR calcium activity with Cal6 dye, control compounds / DAMGO (Example 3); details: VTA-like spheroids; for functional response (calcium activity peak parameters) to control compound: recordings 1-, 30-, 60-min after treatment
# Experimental: (§2) Viruses and dyes: To assess calcium activity, the calcium dye, Cal6 (Molecular Devices), and genetically encoded calcium indicator, GCaMP6f (Addgene, cat #100836-AAV9) were used. Cal6 was used according to manufacturer's instructions and 10 mL of maintenance media was added to each vial. Two hours before activity was recorded, half of the spheroid media was exchanged for media with Cal6. The plates were covered in foil and placed in the incubator at 37° C. during the 2-hour (hr) incubation period. Since all viruses used were adeno-associated viruses (AAV), they were added to the media on day 7 to allow for 2-weeks expression prior to recording or testing. All viruses were added to the media at 2e5 multiplicity of infection (MOI). GCaMP6f infection occurred via an adeno-associated virus serotype 9 (AAV9) expressed under the CAG promoter for expression in both neurons and astrocytes. Designer receptors exclusively activated by designer drugs (DREADDs) viruses were used to stimulate and inhibit neuronal activity within spheroids. Both viruses were retrograde AAVs expressed under the human Synapsin promoter for expression in neurons and fused with an mCherry fluorophore. The DREADDs viruses either inserted the designer receptor hM4D(Gi), an inhibitory G-protein coupled receptor, or hM3D(Gq), a stimulatory G-protein coupled receptor. Clozapine-N-oxide (CNO, Tocris cat #4936) was suspended in dimethyl sulfoxide (DMSO) and used as the designer drug to activate the DREADDs viruses. CNO was tested at 1 and 10 μM, with data reported from the 1 μM concentration.
# as §1
# DAMGO was reconstituted in water at a 1 mM concentration and diluted in media to 20 µM such that spheroids would be treated with a final concentration of 10 μM after the half media exchange. Two aspects of OUD were modeled, chronic treatment along with opioid withdrawal. […]
# 384 Pin Tool: A 384 well pin tool (Rexroth) was used to transfer compounds simultaneously to the spheroid plate. […] Compound transfer via the 384 well pin tool occurred after the baseline recordings with the fluorescent imaging plate reader (FLIPR). […]
# [3] = test system: PFC-like spheroids; experiment: FLIPR calcium activity with Cal6 dye, control compounds / DAMGO / AD compounds (Example 3); details: for functional response (calcium activity peak parameters) to control compound: PFC-like spheroids, recordings 1-, 30-, 60-min after treatment; for effect on peak count and peak spacing: 10 μM DAMGO, recording 30-min later, then naloxone
# Experimental: as §2, §1
# DAMGO was reconstituted in water at a 1 mM concentration and diluted in media to 20 µM such that spheroids would be treated with a final concentration of 10 μM after the half media exchange. Two aspects of OUD were modeled, chronic treatment along with opioid withdrawal. For spheroids subjected to chronic DAMGO treatment, 20 μM DAMGO in maintenance media was added via half media exchange beginning on day 10, with treatments occurring every other day for 10 days, giving a total of five treatments.
# 384 Pin Tool: A 384 well pin tool (Rexroth) was used to transfer compounds simultaneously to the spheroid plate. Prior to compound transfer, the pin tool went through four wash cycles where pins were rinsed with dimethyl sulfoxide (DMSO), followed by methanol, then deionized (DI) water, to ensure the pins were clean. Compound transfer via the 384 well pin tool occurred after the baseline recordings with the fluorescent imaging plate reader (FLIPR). Here, 60 nL of compound suspended in DMSO was transferred to 60 µL of media in each well, diluting the compounds by 1000-fold and giving a final DMSO concentration of 0.1%.
# [4] = test system: PFC-like spheroids; experiment: FLIPR calcium activity profiling, compound addition (Examples 1-2); details: FLIPR recordings 1-, 30-, 70-min after compound (t1, t30, t70)
# Experimental: (§3) To examine neuronal activity changes as a response to compound treatment, calcium activity was assessed using a Fluorescent Imaging Plate Reader (FLIPR) Penta (Molecular Devices). FLIPR Calcium 6 Assay kits were purchased from Molecular Devices (PN: R8190). On day of activity profiling, 96-well or 384-well ULA round bottom (black sides, clear bottom) plates containing spheroids were removed from incubator. Fresh FLIPR Calcium 6 dye was prepared by diluting each vial in 10 ml of freshly prepared, phenol-free complete spheroid maturation media and vortexed for 2 minutes. Half of the media was removed from each well (45 μl from 384-well plate wells, 100 ul from 96-well plate wells) and replaced with equal amounts freshly prepared FLIPR Calcium 6 dye, followed by a 2-hour incubation in the dark in a 37 C, 5% CO2 incubator. After 2-hours, plates were removed and kept at room temperature for 10 minutes, then imaged and calcium activity read using the Molecular Devices FLIPR Penta High-Throughput Cellular Screening System. The FLIPR incubator stage was pre-warmed to 37° C. approximately 30 minutes prior to imaging. Standard filter sets were used for Cal6 imaging (excitation 470-495 and emission 515-575 nm). FLIPR recordings were obtained with the camera in normal mode, and settings included: gain was set to 2.5, exposure time to 0.03 seconds, and excitation intensity to 50%. Fluorescent image reads were taken every 0.6 seconds for a total of 1000 reads over a total run time of 10 minutes. Four recordings total were captured: baseline activity, 1-min after compound treatment, 30- and 70-min after compound treatment.
# (§4) After baseline activity, cell plates were removed from the FLIPR and transferred to a 384-well pin tool instrument. Prior to compound addition, the pin tool was subjected to 4 wash cycles exposing the pins to water, methanol, and DMSO each time. Compounds, including either “QC compounds” (compounds with known mechanism of action, listed in results) or the mu opioid receptor selective-agonist DAMGO, were transferred from a compound source plate to the 384-well spheroid plate. Immediately after compound transfer, the cell plate was placed back in the FLIPR for the recording that was 1-min after compound transfer to begin. After this 10-min recording, another recording was captured 30-min after compounds were transferred. After the 30-min recording, the plate was again removed from the FLIPR and transferred to the pin tool instrument. During this phase of compound transfer, naloxone was transferred to wells that received DAMGO during the first compound transfer. Following this second compound transfer, the cell plate was placed back in the FLIPR and a final recording was obtained 30-min later, and 70-min after the initial compound transfer.
# (§5) The FLIPR software ScreenWorks PeakPro 2.0 was used for the initial analysis of calcium activity using automated peak detection settings. With these settings, average peak statistics over each 10-min recording for each well were exported from PeakPro to Microsoft Excel. ScreenWorks Peak Pro 2.0 software was used to extract 17 activity features describing different aspects of calcium activity profiles. These included peak amplitude (PkA), peak amplitude standard deviation (PkASD), peak count (PkCt), peak rate (measured as peaks per minute, PpM), peak rate SD, peak spacing (PkSp), peak spacing SD (PkSpSD), peak spacing regularity, area under the curve (AUC), AUC SD, peak rise slope, peak rise slope SD, peak rise time (PkRt), peak ride time SD (PkRtSD), peak decay slope, peak decay slope SD, peak decay time (PkDt), and peak decay time SD (PkDtSD). To assess variability of these peak parameters, percent coefficients of variance (CV) were calculated by dividing the standard deviation/mean and multiplying by 100 for each designer spheroid type, and those with % CV's […] 20% were removed from future analysis. […]
# [5] = test system: VTA-like spheroids; experiment: as above; details: FLIPR recordings 1-, 30-, 70-min after compound (t1, t30, t70)
# Experimental: as §3, §4, §5
SMILES,reversal of APOE4-induced deficits in peak count and spacing [1],functional response (calcium activity peak parameters) to control compound [2],functional response (calcium activity peak parameters) to control compound [3],effect on calcium activity peak parameters compared to DMSO controls [4],effect on calcium activity peak parameters compared to DMSO controls [5],also measured
COc1cc2c(cc1OC)C(=O)C(CC1CCN(Cc3ccccc3)CC1)C2 (stereo not shown) [Donepezil],reverse deficits caused by APOE4 GABA neurons; also recorded: restore deficits in peak count,–,–,–,–,–
COc1cccc(C=NCCN=Cc2cccc(OC)c2[O-])c1[O-].[Cl-].[Mn+3] [EUK-134],reverse deficits caused by APOE4 GABA neurons; also recorded: restore deficits in peak count,–,–,–,–,–
CC12CC3CC(C)(C1)CC(N)(C3)C2 [Memantine],reverse deficits caused by APOE4 GABA neurons; also recorded: restore deficits in peak count,increases in peak count and rate and decreases in peak amplitude,increases in peak count and rate and decreases in peak amplitude,–,–,–
NCc1cc(=O)[nH]o1 [Muscimol],–,complete inhibition of activity that began immediately after treatment and persisted for at least 60-min,complete inhibition of activity that began immediately after treatment and persisted for at least 60-min,total inhibition of calcium activity that lasted throughout the entire recording period,total inhibition of calcium activity that lasted throughout the entire recording period,–
CCN1CCCC1CNC(=O)c1cc(S(N)(=O)=O)ccc1OC (stereo not shown) [Sulpiride],–,no changes were observed in measures of peak frequency but increases in peak width and peak decay time were observed,increased peak count and rate while decreasing peak spacing,significantly increased PkCt and PpM while decreasing PkSp 70-min after treatment,"did not impact calcium activity, though there was a statistical trend toward significantly increasing PkCt 1-min after treatment",–
C=CCN1CC[C@]23c4c5ccc(O)c4O[C@H]2C(=O)CC[C@@]3(O)[C@H]1C5 [naloxone],–,–,–,–,–,reversal of deficits induced by chronic opioid treatment ([2]; chronic DAMGO pre-treatment): reverses deficits induced by chronic opioid treatment in PFC-like but not VTA-like spheroids; effect on peak count and peak spacing ([3]; PFC-like chronic DAMGO-treated spheroids): those treated with naloxone no longer showed significant differences in these peak parameters compared to DMSO-treated controls; also recorded: reverses deficits induced by chronic opioid treatment in PFC-like but not VTA-like spheroids; effect on peak count and peak spacing ([3]; PFC-like control spheroids): reversed deficits in peak count and spacing in acute DAMGO-treated control spheroids

# Reference: patent publication US20240141291A1, “FUNCTIONAL BRAIN REGION-SPECIFIC NEURAL SPHEROIDS AND METHODS OF USE” (THE UNITED STATES OF AMERICA, AS REPRESENTED BY THE …, priority 2021, published 2024)
